Each molecule was assayed on HCV 1b genotype (assay: microbe, parasite or virus in culture). Settings: HCV 1b replicon; read-out: 1b (μM): EC50 (Effective 50% inhibitory concentration) against the HCV 1b genotype.
Format: cell-based, Hepatitis C virus
Procedure: An HCV Replicon assay was utilized in the present disclosure, and was prepared, conducted and validated as described in commonly owned PCT/US2006/022197 and in O'Boyle et. al. Antimicrob Agents Chemother. 2005 April; 49(4):1346-53. Assay methods incorporating luciferase reporters have also been used as described (Apath.com).
HCV-neo replicon cells and replicon cells containing resistance substitutions in the NS5A region were used to test the currently described family of compounds.

Molecule	EC50
COC(=O)N[C@@H](C(=O)N1C(c2nc(-c3ccc(-c4ccc(-c5c[nH]c(C6C[C@H]7CC7N6C(=O)[C@H](NC(=O)OC)C6C[C@@H]7[C@H](C6)C7(F)F)n5)cc4)cc3)c[nH]2)C[C@H]2CC21)C1C[C@@H]2[C@H](C1)C2(F)F (single isomer, unassigned; diastereomer 3) [QC2.3]	1.08 nM

Same assay, conditions: HCV 1b replicon; read-out: Range: EC50 ranges against HCV 1b

Molecule	EC50
COC(=O)NC(C(=O)N1[C@@H](C)CC[C@H]1c1nc(-c2ccc(-c3ccc(-c4c[nH]c([C@@H]5CC[C@H](C)N5C(=O)C(NC(=O)OC)=C5CC(C)(C#N)C5)n4)cc3)cc2)c[nH]1)=C1CC(C)(C#N)C1 (stereo partly drawn) [Example 12.2, dimethyl (4,4′-biphenyldiylbis(1H-imidazole-4,2-diyl((2S,5S)-5-methyl-2,1-pyrrolidinediyl)(1-(3-cyano-3-methylcyclobutylidene)-2-oxo-2,1-ethanediyl)))biscarbamate]	0.9 to 700 nM
COC(=O)N[C@@H](C(=O)N1C(c2nc(-c3ccc(-c4ccc(-c5c[nH]c(C6C[C@H]7CC7N6C(=O)[C@H](NC(=O)OC)C6C[C@@H]7[C@H](C6)C7(F)F)n5)cc4)cc3)c[nH]2)C[C@H]2CC21)C1C[C@@H]2[C@H](C1)C2(F)F (single isomer, unassigned; diastereomer 3) [QC2.3]	0.9 to 700 nM
COC(=O)NC(C(=O)N1C[C@@H](C)C[C@H]1c1nc2cc(C#Cc3ccc4c(ccc5nc([C@@H]6C[C@H](C)CN6C(=O)C(NC(=O)OC)C6CCOC7(CC7)C6)[nH]c54)c3)ccc2[nH]1)C1CCOC2(CC2)C1 (some centres unmarked) [QC9]	0.00501 to 0.1 nM
COC(=O)NC(C(=O)N1C(c2nc(-c3ccc(-c4ccc(-c5c[nH]c([C@@H]6CC[C@H](C)N6C(=O)C(NC(=O)OC)C6CCC7(CC7)OC6)n5)cc4)cc3)c[nH]2)CC[C@@H]1C)C1CCC2(CC2)OC1 (some centres unmarked) [Example 1.2]	0.00501 to 0.1 nM
COC(=O)N[C@@H](C(=O)N1[C@@H]2C[C@@H]2C[C@H]1c1nc(-c2ccc(-c3ccc(-c4c[nH]c([C@@H]5C[C@H]6C[C@H]6N5C(=O)[C@H](NC(=O)OC)[C@H]5C[C@H]6C[C@H]6C5)n4)cc3)cc2)c[nH]1)[C@H]1C[C@H]2C[C@H]2C1 (single isomer, unassigned; diastereomer 3) [QC3.3]	0.1 to 0.9 nM
COC(=O)NC(C(=O)N1[C@@H](C)CC[C@H]1c1ncc(-c2ccc(-c3ccc(-c4cnc([C@@H]5CC[C@H](C)N5C(=O)C(NC(=O)OC)C5CCOC6(CCCC6)C5)[nH]4)cc3)cc2)[nH]1)C1CCOC2(CCCC2)C1 (single isomer, unassigned) [Example 3.4]	0.00501 to 0.1 nM
COC(=O)NC(C(=O)N1[C@@H](C)CC[C@H]1c1ncc(-c2ccc(-c3ccc(-c4cnc([C@@H]5CC[C@H](C)N5C(=O)C(NC(=O)OC)C5CCOC6(CCCC6)C5)[nH]4)cc3)cc2)[nH]1)C1CCOC2(CCCC2)C1 (single isomer, unassigned) [Example 3.1]	0.9 to 700 nM
COC(=O)NC(C(=O)N1CCCC1c1ncc(-c2ccc(C#Cc3ccc(-c4cnc(C5CCCN5C(=O)C(NC(=O)OC)C5CCOC6(CC6)C5)[nH]4)cc3)cc2)[nH]1)C1CCOC2(CC2)C1 [OL7, dimethyl (((2S,2′S)-2,2′-(5,5′-(ethyne-1,2-diylbis(4,1-phenylene))bis(1H-imidazole-5,2-diyl))bis(pyrrolidine-2,1-diyl))bis(2-oxo-1-(4-oxaspiro[2.5]octan-7-yl)ethane-2,1-diyl))dicarbamate]	0.00501 to 0.1 nM
methyl (2-((2S)-2-(7-(2-((2S)-1-(((methoxycarbonyl)amino)(4-oxaspiro[2.5]oct-7-yl)acetyl)-2-pyrrolidinyl)-1H-benzimidazol-5-yl)-4,5-dihydro-1H-naphtho[1,2-d]imidazol-2-yl)-1-pyrrolidinyl)-1-(4-oxaspiro[2.5]oct-7-yl)-2-oxoethyl)carbamate [QC12]	0.1 to 0.9 nM
COC(=O)NC(C(=O)N1[C@@H](C)CC[C@H]1c1ncc(-c2ccc(-c3ccc(-c4cnc([C@@H]5CC[C@H](C)N5C(=O)C(NC(=O)OC)C5CCOC6(CCCC6)C5)[nH]4)cc3)cc2)[nH]1)C1CCOC2(CCCC2)C1 (single isomer, unassigned) [Example 3.3]	0.00501 to 0.1 nM

Same assay, conditions: Hepatitis C virus, HCV 1b replicon; read-out: 1b (μM): EC50 (Effective 50% inhibitory concentration) against the HCV 1b genotype

Molecule	EC50
COC(=O)NC(C(=O)N1[C@@H]2C[C@@H]2C[C@H]1c1nc(-c2ccc(-c3ccc(-c4c[nH]c([C@@H]5C[C@H]6C[C@H]6N5C(=O)C(NC(=O)OC)[C@H]5C[C@@H]6C[C@@H]6C5)n4)cc3)cc2)c[nH]1)[C@H]1C[C@@H]2C[C@@H]2C1 (single isomer, unassigned; diastereomer 3) [QC5.3]	0.00555 nM
C#C[C@@H]1CC[C@@H](c2ncc(-c3ccc(-c4ccc(-c5cnc([C@@H]6CC[C@@H](C#C)N6C(=O)[C@@H](NC(=O)OC)C6C[C@@H](C)O[C@H](C)C6)[nH]5)cc4)cc3)[nH]2)N1C(=O)[C@@H](NC(=O)OC)C1C[C@@H](C)O[C@H](C)C1 (stereo partly drawn) [Example 10.1, dimethyl (4,4′-biphenyldiylbis(1H-imidazole-4,2-diyl((2S,5S)-5-ethynyl-2,1-pyrrolidinediyl)((1S)-1-((2R,6R)-2,6-dimethyltetrahydro-2H-pyran-4-yl)-2-oxo-2,1-ethanediyl)))biscarbamate]	0.263 nM
COC(=O)NC(C(=O)N1[C@@H](C)CC[C@H]1c1ncc(-c2ccc(-c3ccc(-c4cnc([C@@H]5CC[C@H](C)N5C(=O)C(NC(=O)OC)C5CCOC6(CCCC6)C5)[nH]4)cc3)cc2)[nH]1)C1CCOC2(CCCC2)C1 (single isomer, unassigned) [Example 3.3]	0.00504 nM

Same assay, conditions: Hepatitis C virus, HCV 1b replicon; read-out: Range: EC50 ranges against HCV 1b

Molecule	EC50
COC(=O)NC(C(=O)N1C(c2nc(-c3ccc(-c4ccc(-c5c[nH]c([C@@H]6CC[C@H](C)N6C(=O)C(NC(=O)OC)C6CCC7(CC7)OC6)n5)cc4)cc3)c[nH]2)CC[C@@H]1C)C1CCC2(CC2)OC1 (some centres unmarked) [Example 1.1]	0.00501 to 0.1 nM
COC(=O)NC(C(=O)N1CCC[C@H]1c1ncc(-c2ccc(-c3ccc(-c4cnc([C@@H]5CCCN5C(=O)C(NC(=O)OC)C5CCOC6(CC6)C5)[nH]4)cn3)cc2)[nH]1)C1CCOC2(CC2)C1 (stereo partly drawn) [OL6, methyl (2-((2S)-2-(5-(6-(4-(2-((2S)-1-(((methoxycarbonyl)amino)(4-oxaspiro[2.5]oct-7-yl)acetyl)pyrrolidin-2-yl)-1H-imidazol-5-yl)phenyl)pyridin-3-yl)-1H-imidazol-2-yl)pyrrolidin-1-yl)-1-(4-oxaspiro[2.5]oct-7-yl)-2-oxoethyl)carbamate]	0.1 to 0.9 nM
COC(=O)N[C@H](C(=O)N1[C@H](c2nc(-c3ccc(-c4ccc(-c5c[nH]c([C@@H]6C[C@@]7(C)C[C@H]7N6C(=O)[C@@H](NC(=O)OC)[C@H]6CCOC7(CC7)C6)n5)cc4)cc3)c[nH]2)C[C@@]2(C)C[C@@H]12)[C@H]1CCOC2(CC2)C1 [QC19, dimethyl (4,4′-biphenyldiylbis(1H-imidazole-4,2-diyl((1R,3S,5R)-5-methyl-2-azabicyclo[3.1.0]hexane-3,2-diyl)(1-(4-oxaspiro[2.5]oct-7-yl)-2-oxo-2,1-ethanediyl)))biscarbamate]	0.00501 to 0.1 nM
COC(=O)NC(C(=O)N1[C@@H]2C[C@@H]2C[C@H]1c1nc(-c2ccc(-c3ccc(-c4c[nH]c([C@@H]5C[C@H]6C[C@H]6N5C(=O)C(NC(=O)OC)[C@H]5C[C@@H]6C[C@@H]6C5)n4)cc3)cc2)c[nH]1)[C@H]1C[C@@H]2C[C@@H]2C1 (single isomer, unassigned; diastereomer 3) [QC5.3]	0.00501 to 0.1 nM
COC(=O)N[C@H](C(=O)N1[C@@H](CF)CC[C@H]1c1ncc(-c2ccc(-c3ccc(-c4cnc([C@@H]5CC[C@H](CF)N5C(=O)[C@@H](NC(=O)OC)[C@H]5CCOC6(CC6)C5)[nH]4)cc3)cc2)[nH]1)[C@H]1CCOC2(CC2)C1 [Example 8]	0.00501 to 0.1 nM
COC(=O)NC(C(=O)N(C)[C@@H](C)c1nc2cc(C#Cc3ccc4nc([C@H](C)N(C)C(=O)C(NC(=O)OC)C5CCOC6(CC6)C5)[nH]c4c3)ccc2[nH]1)C1CCOC2(CC2)C1 (stereo partly drawn) [OL2, methyl (2-(((1S)-1-(5-((2-((1S)-1-((((methoxycarbonyl)amino)(4-oxaspiro[2.5]oct-7-yl)acetyl)(methyl)amino)ethyl)-1H-benzimidazol-6-yl)ethynyl)-1H-benzimidazol-2-yl)ethyl)(methyl)amino)-1-(4-oxaspiro[2.5]oct-7-yl)-2-oxoethyl)carbamate]	0.00501 to 0.1 nM
COC(=O)N[C@H](C(=O)N1[C@@H](C)CC[C@H]1c1nc(-c2ccc(-c3ccc(-c4c[nH]c([C@@H]5CC[C@H](C)N5C(=O)[C@@H](NC(=O)OC)C56CC(C(F)(F)F)(C5)C6)n4)cc3)cc2)c[nH]1)C12CC(C(F)(F)F)(C1)C2 [OL12, dimethyl (4,4′-biphenyldiylbis(1H-imidazole-4,2-diyl((2S,5S)-5-methyl-2,1-pyrrolidinediyl)((1S)-2-oxo-1-(3-(trifluoromethyl)bicyclo [1.1.1]pent-1-yl)-2,1-ethanediyl)))biscarbamate]	0.1 to 0.9 nM
C#C[C@@H]1CC[C@@H](c2ncc(-c3ccc(-c4ccc(-c5cnc([C@@H]6CC[C@@H](C#C)N6C(=O)[C@@H](NC(=O)OC)C6C[C@@H](C)O[C@H](C)C6)[nH]5)cc4)cc3)[nH]2)N1C(=O)[C@@H](NC(=O)OC)C1C[C@@H](C)O[C@H](C)C1 (stereo partly drawn) [Example 10.1, dimethyl (4,4′-biphenyldiylbis(1H-imidazole-4,2-diyl((2S,5S)-5-ethynyl-2,1-pyrrolidinediyl)((1S)-1-((2R,6R)-2,6-dimethyltetrahydro-2H-pyran-4-yl)-2-oxo-2,1-ethanediyl)))biscarbamate]	0.1 to 0.9 nM
COC(=O)N[C@H](C(=O)N1[C@@H](C)CC[C@H]1c1ncc(-c2ccc(-c3ccc(-c4cnc([C@@H]5CC[C@H](C)N5C(=O)[C@@H](NC(=O)OC)C5CC6(COC6)C5)[nH]4)cc3)cc2)[nH]1)C1CC2(COC2)C1 (stereo partly drawn) [Example 13, dimethyl (4,4′-biphenyldiylbis(1H-imidazole-5,2-diyl((2S,5S)-5-methyl-2,1-pyrrolidinediyl)((1S)-1-(2-oxaspiro[3.3]hept-6-yl)-2-oxo-2,1-ethanediyl)))biscarbamate]	0.00501 to 0.1 nM
COC(=O)N[C@H](C(=O)N1[C@@H](C)CC[C@H]1c1ncc(-c2ccc(-c3ccc(-c4cnc([C@@H]5CC[C@H](C)N5C(=O)[C@@H](NC(=O)OC)[C@H]5C[C@H](C)O[C@@H](C6CC6)C5)[nH]4)cc3)cc2)[nH]1)[C@H]1C[C@H](C)O[C@@H](C2CC2)C1 [Example 9.3, dimethyl ((S,R,S,1S,1′S)-((2S,2′S,5S,5′S)-5,5′-(5,5′-([1,1′-biphenyl]-4,4′-diyl)bis(1H-imidazole-5,2-diyl))bis(2-methylpyrrolidine-5,1-diyl))bis(1-((2R,4S,6S)-2-cyclopropyl-6-methyltetrahydro-2H-pyran-4-yl)-2-oxoethane-2,1-diyl))dicarbamate]	0.00501 to 0.1 nM
COC(=O)N[C@H](C(=O)N1[C@@H](CO)CC[C@H]1c1ncc(-c2ccc(-c3ccc(-c4cnc([C@@H]5CC[C@H](CO)N5C(=O)[C@@H](NC(=O)OC)C5C[C@@H](C)O[C@H](C)C5)[nH]4)cc3)cc2)[nH]1)C1C[C@@H](C)O[C@H](C)C1 (single isomer, unassigned) [Example 11]	0.9 to 700 nM
COC(=O)N[C@H](C(=O)N1CC2(CCCC2)C[C@H]1c1nc(-c2ccc(-c3ccc(-c4c[nH]c([C@@H]5CC6(CCCC6)CN5C(=O)[C@@H](NC(=O)OC)C5C[C@@H](C)O[C@H](C)C5)n4)cc3)cc2)c[nH]1)C1C[C@@H](C)O[C@H](C)C1 (stereo partly drawn) [Example JLR-1.0, dimethyl (4,4′-biphenyldiylbis(1H-imidazole-4,2-diyl(3S)-2-azaspiro[4.4]nonane-3,2-diyl((1S)-1-((2R,6R)-2,6-dimethyltetrahydro-2H-pyran-4-yl)-2-oxo-2,1-ethanediyl)))biscarbamate]	0.00501 to 0.1 nM

Source: US9561212B2, “Hepatitis C virus inhibitors” (BRISTOL-MYERS SQUIBB COMPANY, priority 2012, dated 2017)
